These are literature values, as cited in article PMC3979036, “Autocrine IGF-I/insulin receptor axis compensates for inhibition of AKT in ER-positive breast cancer cells with resistance to estrogen deprivation” (Breast Cancer Research : BCR, 2013).

The data set addresses InsR (insulin receptor) (Homo sapiens, UniProt P06213). Kind of data set: autophosphorylation of human InsR in transfected CHO-T cells (AstraZeneca unpublished data). The format is cell-based.

InsR (insulin receptor), sequence (P06213 28-758): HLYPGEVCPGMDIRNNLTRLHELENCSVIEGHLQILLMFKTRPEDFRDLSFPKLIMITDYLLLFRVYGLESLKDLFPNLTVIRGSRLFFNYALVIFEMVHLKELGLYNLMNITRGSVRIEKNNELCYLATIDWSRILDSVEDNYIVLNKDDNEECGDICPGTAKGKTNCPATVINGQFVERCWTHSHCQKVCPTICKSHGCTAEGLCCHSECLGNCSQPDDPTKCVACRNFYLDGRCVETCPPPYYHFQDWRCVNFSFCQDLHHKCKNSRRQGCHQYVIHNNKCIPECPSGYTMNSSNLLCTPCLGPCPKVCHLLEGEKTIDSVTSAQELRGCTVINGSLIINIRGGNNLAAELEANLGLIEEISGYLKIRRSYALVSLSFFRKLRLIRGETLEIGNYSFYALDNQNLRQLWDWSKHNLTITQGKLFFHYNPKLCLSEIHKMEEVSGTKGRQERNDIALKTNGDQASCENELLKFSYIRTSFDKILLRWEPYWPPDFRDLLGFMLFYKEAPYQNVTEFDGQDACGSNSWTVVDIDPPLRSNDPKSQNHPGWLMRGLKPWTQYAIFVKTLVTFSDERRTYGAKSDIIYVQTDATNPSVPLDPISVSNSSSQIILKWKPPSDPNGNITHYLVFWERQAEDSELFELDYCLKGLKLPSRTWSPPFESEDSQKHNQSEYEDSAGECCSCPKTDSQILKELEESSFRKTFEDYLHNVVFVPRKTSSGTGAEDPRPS
InsR (insulin receptor), sequence (P06213 763-1382): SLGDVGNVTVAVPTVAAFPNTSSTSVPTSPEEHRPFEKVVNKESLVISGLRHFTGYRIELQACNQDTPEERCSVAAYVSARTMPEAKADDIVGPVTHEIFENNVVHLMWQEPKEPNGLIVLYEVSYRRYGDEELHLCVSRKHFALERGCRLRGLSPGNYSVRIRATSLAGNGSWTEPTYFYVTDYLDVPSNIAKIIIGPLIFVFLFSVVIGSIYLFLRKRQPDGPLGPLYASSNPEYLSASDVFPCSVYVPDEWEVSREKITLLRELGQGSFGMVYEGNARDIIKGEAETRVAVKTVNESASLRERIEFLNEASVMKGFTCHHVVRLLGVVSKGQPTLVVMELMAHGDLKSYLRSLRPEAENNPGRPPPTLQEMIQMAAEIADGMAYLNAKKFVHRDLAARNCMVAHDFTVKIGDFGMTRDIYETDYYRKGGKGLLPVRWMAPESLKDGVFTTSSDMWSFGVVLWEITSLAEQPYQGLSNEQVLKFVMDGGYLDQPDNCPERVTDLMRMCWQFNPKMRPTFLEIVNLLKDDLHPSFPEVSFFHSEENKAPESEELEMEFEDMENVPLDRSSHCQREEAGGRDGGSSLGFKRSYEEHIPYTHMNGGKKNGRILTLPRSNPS

On to `Cc1nn(C2CCN(C(=O)[C@@H](C)O)CC2)c(C)c1Nc1ncc(Cl)c(-c2cnn3ccccc23)n1` [AZD9362], for which the half-inhibitory concentration (IC50) (commonly the point on the concentration scale where inhibition reaches its midpoint) is 186 nM.
